Laboratory results taken from patent US20260297085A1, “1 H-PYRROLO[2,3-B]PYRIDIN-4-YL]-2-OXOPYRROLIDINE-3-CARBONITRILE DERIVATIVES AS TYROSINE KINASE 2 (TYK2) INHIBITORS FOR THE TREATMENT OF INFLAMMATORY DISEASES” (BIOGEN MA INC., priority 2023, published 2026).
Where a name gives a salt, the structure may show the parent alone.

How the values were obtained:
[1] = target: T1, human TYK2 kinase domain (JH1) (Homo sapiens, UniProt P29597); assay: JH1 biochemical assay for TYK2 (ADP-Glo kinase assay, recombinant JH1 catalytic domain, JAK3-974 peptide, 10 μM ATP)
T1 construct: recombinantly generated catalytic kinase (also known as JH1) domain of human JAK1, JAK2, JAK3 and TYK2
T1 sequence (P29597 897-1176 limits assumed): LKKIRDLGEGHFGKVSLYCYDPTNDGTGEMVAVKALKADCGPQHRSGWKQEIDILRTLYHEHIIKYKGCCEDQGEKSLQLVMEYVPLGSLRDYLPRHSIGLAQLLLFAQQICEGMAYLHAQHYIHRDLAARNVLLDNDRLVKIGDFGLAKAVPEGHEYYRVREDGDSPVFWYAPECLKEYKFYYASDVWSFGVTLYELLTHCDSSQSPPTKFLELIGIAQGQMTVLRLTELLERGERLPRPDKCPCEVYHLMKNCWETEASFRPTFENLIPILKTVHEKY
Summary of the method: (§1)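 Luminescent ADP read-out after residual ATP depletion, 100 min reaction. Kinase domain concentrations were 4 nM (JAK1), 0.2 nM (JAK2), 0.3 nM (JAK3) and 2 nM (TYK2), each with 50 μM peptide. IC50 values came from 4-parameter logistic fits over 11 points, 3-fold steps, top 10 μM or 1 μM.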

[2] = target: T2, human JAK1 kinase domain (JH1) (Homo sapiens, UniProt P23458); assay: JH1 biochemical assay for JAK1 (ADP-Glo kinase assay, recombinant JH1 catalytic domain, JAK3-342 peptide, 35 μM ATP)
T2 construct: recombinantly generated catalytic kinase (also known as JH1) domain of human JAK1, JAK2, JAK3 and TYK2
T2 sequence (P23458 875-1153 limits assumed): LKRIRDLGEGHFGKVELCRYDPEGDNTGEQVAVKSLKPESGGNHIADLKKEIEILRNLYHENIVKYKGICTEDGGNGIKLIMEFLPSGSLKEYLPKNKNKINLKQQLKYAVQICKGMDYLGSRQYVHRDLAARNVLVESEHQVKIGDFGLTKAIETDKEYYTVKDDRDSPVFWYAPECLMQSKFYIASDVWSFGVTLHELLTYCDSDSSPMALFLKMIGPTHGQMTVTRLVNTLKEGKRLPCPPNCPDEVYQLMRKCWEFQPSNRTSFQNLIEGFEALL
Summary of the method: as §1

[3] = target: T3, human JAK2 kinase domain (JH1) (Homo sapiens, UniProt O60674); assay: JH1 biochemical assay for JAK2 (ADP-Glo kinase assay, recombinant JH1 catalytic domain, JAK3-974 peptide, 15 μM ATP)
T3 construct: recombinantly generated catalytic kinase (also known as JH1) domain of human JAK1, JAK2, JAK3 and TYK2
T3 sequence (O60674 849-1124 limits assumed): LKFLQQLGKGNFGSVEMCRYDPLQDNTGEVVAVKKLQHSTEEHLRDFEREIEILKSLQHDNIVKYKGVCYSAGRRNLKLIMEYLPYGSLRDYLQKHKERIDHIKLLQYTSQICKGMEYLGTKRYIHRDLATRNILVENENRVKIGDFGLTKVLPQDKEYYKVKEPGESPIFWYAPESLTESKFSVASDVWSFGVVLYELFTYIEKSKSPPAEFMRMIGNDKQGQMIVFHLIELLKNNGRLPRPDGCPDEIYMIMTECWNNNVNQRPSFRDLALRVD
Summary of the method: as §1

[4] = target: T4, human JAK3 kinase domain (JH1) (Homo sapiens, UniProt P52333); assay: JH1 biochemical assay for JAK3 (ADP-Glo kinase assay, recombinant JH1 catalytic domain, JAK3-974 peptide, 4 μM ATP)
T4 construct: recombinantly generated catalytic kinase (also known as JH1) domain of human JAK1, JAK2, JAK3 and TYK2
T4 sequence (P52333 822-1111 limits assumed): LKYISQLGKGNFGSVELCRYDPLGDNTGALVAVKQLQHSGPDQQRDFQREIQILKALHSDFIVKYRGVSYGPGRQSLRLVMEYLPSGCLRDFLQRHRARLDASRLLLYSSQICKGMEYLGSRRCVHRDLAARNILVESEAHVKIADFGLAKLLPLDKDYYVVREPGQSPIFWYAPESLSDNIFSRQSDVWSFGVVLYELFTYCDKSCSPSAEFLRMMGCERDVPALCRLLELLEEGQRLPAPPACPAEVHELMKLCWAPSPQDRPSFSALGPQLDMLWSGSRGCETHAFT
Summary of the method: as §1

[5] = target: Tyk2 kinase activity on STAT4 in NK92 cells (Homo sapiens, UniProt P29597); assay: pSTAT4 cell assay (MSD; NK92 cells, 30 ng/mL IL2 stimulation); type: cell-based; conditions: 30 ng/mL IL2, 15 minutes
Sequence of Tyk2 kinase activity on STAT4 in NK92 cells (P29597 whole entry): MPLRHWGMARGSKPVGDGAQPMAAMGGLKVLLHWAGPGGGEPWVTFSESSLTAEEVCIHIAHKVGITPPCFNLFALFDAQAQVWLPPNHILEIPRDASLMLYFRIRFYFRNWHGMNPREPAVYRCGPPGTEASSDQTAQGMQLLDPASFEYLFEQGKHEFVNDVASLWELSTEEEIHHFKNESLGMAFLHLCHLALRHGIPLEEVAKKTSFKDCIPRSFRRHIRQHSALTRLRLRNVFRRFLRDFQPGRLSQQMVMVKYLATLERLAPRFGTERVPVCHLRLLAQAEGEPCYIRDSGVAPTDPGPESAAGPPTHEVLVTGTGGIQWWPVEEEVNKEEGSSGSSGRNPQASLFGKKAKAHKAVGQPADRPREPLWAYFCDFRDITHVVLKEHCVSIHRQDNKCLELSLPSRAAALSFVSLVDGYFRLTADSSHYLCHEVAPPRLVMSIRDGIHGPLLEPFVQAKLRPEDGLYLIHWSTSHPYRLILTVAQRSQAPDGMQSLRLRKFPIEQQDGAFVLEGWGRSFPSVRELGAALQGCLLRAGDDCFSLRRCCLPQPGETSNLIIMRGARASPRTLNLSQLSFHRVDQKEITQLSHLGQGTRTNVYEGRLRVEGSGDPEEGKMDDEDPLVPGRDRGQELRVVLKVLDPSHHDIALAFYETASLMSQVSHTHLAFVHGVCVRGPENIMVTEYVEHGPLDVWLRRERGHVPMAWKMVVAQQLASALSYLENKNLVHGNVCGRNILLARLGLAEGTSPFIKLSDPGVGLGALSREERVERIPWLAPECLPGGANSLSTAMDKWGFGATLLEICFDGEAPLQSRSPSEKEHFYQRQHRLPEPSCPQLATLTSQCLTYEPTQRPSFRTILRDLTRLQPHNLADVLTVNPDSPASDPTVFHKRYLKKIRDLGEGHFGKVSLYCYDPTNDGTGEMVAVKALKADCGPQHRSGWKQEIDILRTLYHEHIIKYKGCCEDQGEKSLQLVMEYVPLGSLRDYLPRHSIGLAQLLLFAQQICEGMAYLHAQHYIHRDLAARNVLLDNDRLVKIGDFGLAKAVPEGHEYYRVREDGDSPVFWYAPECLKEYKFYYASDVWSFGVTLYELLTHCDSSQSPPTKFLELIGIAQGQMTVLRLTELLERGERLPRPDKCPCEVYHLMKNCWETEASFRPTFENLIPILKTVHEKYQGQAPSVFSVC
Summary of the method: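 Read-out: phospho-STAT in NK92 lysates, MSD format, anti-STAT4 antibodies. Cells were serum-starved, given compound for 1 hr (10 μM top, four-fold, 10 points) and IL2-stimulated (30 ng/mL, 15 min). Normalized percent activity vs log concentration, 4-parameter logistic fit gave IC50.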

[6] = target: JAK2 kinase activity on STAT5 in TF1 cells (Homo sapiens, UniProt O60674); assay: pSTAT5 cell assay (MSD; TF1 cells, 30 ng/mL IL-3 stimulation); type: cell-based; conditions: 30 ng/mL IL-3, 15 minutes
Sequence of JAK2 kinase activity on STAT5 in TF1 cells (O60674 whole entry): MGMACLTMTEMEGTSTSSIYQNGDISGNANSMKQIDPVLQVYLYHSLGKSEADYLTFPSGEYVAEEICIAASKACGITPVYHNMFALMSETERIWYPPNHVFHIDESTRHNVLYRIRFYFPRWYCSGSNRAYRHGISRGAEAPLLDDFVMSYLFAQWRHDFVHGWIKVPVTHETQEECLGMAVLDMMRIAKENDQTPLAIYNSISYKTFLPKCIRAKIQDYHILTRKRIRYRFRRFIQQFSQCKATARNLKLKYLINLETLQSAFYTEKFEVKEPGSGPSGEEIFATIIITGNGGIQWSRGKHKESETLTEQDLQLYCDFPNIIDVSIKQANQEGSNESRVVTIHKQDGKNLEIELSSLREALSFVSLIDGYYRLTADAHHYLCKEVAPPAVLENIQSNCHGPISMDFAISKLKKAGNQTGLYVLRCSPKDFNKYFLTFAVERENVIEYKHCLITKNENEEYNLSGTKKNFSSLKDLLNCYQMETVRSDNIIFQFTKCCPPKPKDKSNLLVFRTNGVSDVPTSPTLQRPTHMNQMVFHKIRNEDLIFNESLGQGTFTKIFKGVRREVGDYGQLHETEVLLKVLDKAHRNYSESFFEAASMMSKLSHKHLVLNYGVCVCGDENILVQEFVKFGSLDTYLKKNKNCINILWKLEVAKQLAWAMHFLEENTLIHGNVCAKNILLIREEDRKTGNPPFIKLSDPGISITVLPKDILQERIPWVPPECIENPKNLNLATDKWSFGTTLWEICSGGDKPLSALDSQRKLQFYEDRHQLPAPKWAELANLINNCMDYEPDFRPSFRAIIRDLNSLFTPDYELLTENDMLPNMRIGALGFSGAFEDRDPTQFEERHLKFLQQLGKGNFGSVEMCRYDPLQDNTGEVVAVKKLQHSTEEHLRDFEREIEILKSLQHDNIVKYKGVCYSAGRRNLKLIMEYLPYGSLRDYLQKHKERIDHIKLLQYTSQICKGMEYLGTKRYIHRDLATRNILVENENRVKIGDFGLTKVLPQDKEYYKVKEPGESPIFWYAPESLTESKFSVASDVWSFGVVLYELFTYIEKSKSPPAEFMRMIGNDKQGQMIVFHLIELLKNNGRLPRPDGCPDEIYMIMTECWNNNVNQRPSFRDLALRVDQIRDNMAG
Summary of the method: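 IC50 from a 4-parameter logistic fit of normalized pSTAT5 signal, measured by MSD in lysates of TF1 cells. Cells were serum-starved, exposed to compound for 1 h (top concentration 10 μM, four-fold, 10 points), then given IL-3 at 30 ng/mL for 15 min.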

[7] = target: JAK1 kinase activity on STAT3 in TF1 cells (Homo sapiens, UniProt P23458); assay: pSTAT3 cell assay (MSD; TF1 cells, 30 ng/mL IL-6 stimulation); type: cell-based; conditions: 30 ng/mL IL-6, 15 minutes
Sequence of JAK1 kinase activity on STAT3 in TF1 cells (P23458 whole entry): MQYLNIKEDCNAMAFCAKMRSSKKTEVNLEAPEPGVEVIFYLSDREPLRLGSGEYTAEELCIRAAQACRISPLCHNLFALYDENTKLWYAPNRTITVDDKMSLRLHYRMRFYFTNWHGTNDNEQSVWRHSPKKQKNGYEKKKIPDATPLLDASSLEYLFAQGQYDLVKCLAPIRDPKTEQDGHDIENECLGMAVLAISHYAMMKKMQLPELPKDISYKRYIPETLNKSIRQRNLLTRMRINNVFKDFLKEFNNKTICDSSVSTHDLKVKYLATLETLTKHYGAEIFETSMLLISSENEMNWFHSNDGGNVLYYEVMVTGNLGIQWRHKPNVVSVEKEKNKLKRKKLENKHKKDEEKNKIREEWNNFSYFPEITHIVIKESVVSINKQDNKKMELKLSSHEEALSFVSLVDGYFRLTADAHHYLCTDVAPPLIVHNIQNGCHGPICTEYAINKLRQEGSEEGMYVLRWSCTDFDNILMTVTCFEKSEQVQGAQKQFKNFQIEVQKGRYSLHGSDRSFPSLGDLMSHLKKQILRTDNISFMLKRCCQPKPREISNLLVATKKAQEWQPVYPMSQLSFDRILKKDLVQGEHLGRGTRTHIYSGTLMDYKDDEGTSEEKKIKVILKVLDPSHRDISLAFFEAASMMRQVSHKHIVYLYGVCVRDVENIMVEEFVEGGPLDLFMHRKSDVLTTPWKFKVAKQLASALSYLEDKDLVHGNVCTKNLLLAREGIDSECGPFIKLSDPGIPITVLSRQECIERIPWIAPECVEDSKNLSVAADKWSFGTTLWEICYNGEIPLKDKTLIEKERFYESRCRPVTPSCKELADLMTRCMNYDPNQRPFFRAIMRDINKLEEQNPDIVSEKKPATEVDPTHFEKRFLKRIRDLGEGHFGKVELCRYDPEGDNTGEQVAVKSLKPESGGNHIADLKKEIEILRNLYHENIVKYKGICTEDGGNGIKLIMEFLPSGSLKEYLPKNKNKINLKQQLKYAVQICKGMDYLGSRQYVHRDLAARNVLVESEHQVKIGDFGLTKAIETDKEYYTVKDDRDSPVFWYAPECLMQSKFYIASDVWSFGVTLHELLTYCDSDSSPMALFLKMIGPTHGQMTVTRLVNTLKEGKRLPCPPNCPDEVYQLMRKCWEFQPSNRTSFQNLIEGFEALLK
Summary of the method: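 Serum starvation, 1 h compound (10 pt, 4-fold from 10 μM), IL-6 15 min, lysis. pSTAT3 read by MSD immunoassay, anti-STAT3 Abs. Normalized % activity vs log[cpd], 4-PL fit → IC50.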

SMILES	IC50 ([1]; JH1 kinase domain, ADP-Glo) [nM]	IC50 ([2]; JH1 kinase domain, ADP-Glo) [nM]	IC50 ([3]; JH1 kinase domain, ADP-Glo) [nM]	IC50 ([4]; JH1 kinase domain, ADP-Glo) [nM]	IC50 [5] [nM]	IC50 [6] [nM]	IC50 [7] [nM]	IC50 ([1]; TYK2 JH1, ADP-Glo) [nM]	IC50 ([2]; JAK1 JH1, ADP-Glo) [nM]	IC50 ([3]; JAK2 JH1, ADP-Glo) [nM]	IC50 ([4]; JAK3 JH1, ADP-Glo) [nM]
C[C@@H]1CN(c2nc(-c3ccc(C#N)nc3)cn3nccc23)C(=O)[C@]1(C#N)C1CC1 [Example 195, 5-(4-((3R,4S)-3-cyano-3-cyclopropyl-4-methyl-2-oxopyrrolidin-1-yl)pyrazolo[1,5-a]pyrazin-6-yl)picolinonitrile]	5 to 20	< 100	100 to 1000	< 100	> 100	> 10000	1000 to 5000				
C[C@@H]1CN(c2nc(-c3cnn([C@H]4C[C@@H](C#N)C4)c3)cn3ncc(F)c23)C(=O)[C@]1(C#N)C1CC1 [Example 292, (3R,4S)-1-(6-(1-((1s,3S)-3-cyanocyclobutyl)-1H-pyrazol-4-yl)-3-fluoropyrazolo[1,5-a]pyrazin-4-yl)-3-cyclopropyl-4-methyl-2-oxopyrrolidine-3-carbonitrile]					20 to 50	100 to 1000	100 to 1000	< 5	< 100	< 100	< 100
CCOCCn1cc(-c2cc3c(N4C[C@@H](C)[C@@](C#N)(C5CC5)C4=O)ccnn3c2)cn1 [Example 172, (3R,4S)-3-cyclopropyl-1-(6-(1-(2-ethoxyethyl)-1H-pyrazol-4-yl)pyrrolo[1,2-b]pyridazin-4-yl)-4-methyl-2-oxopyrrolidine-3-carbonitrile]	< 5	100 to 1000	100 to 1000	100 to 1000	> 100	5000 to 10000	1000 to 5000				
COc1cc(-c2cc3c(N4CC[C@@](C#N)(C5CC5)C4=O)ccnc3[nH]2)ccn1 [Example 3, (S)-3-cyclopropyl-1-(2-(2-methoxypyridin-4-yl)-1H-pyrrolo[2,3-b]pyridin-4-yl)-2-oxopyrrolidine-3-carbonitrile]	< 5	< 100	< 100	< 100	20 to 50	1000 to 5000	100 to 1000				
COc1ccc(-c2cc3c(N4C[C@@H](C)[C@@](C#N)(C5CC5)C4=O)ccnn3c2)nc1 [Example 145, (3R,4S)-3-cyclopropyl-1-(6-(5-methoxypyridin-2-yl)pyrrolo[1,2-b]pyridazin-4-yl)-4-methyl-2-oxopyrrolidine-3-carbonitrile trifluoroacetate]	5 to 20	100 to 1000	100 to 1000	100 to 1000	> 100	> 10000	5000 to 10000				
CCc1ccc(-c2cc3c(N4C[C@@H](C)[C@@](C#N)(C5CC5)C4=O)ccnn3c2)cn1 [Example 174, (3R,4S)-3-cyclopropyl-1-(6-(6-ethylpyridin-3-yl)pyrrolo[1,2-b]pyridazin-4-yl)-4-methyl-2-oxopyrrolidine-3-carbonitrile trifluoroacetate]	5 to 20	100 to 1000	100 to 1000	100 to 1000	50 to 100	5000 to 10000	1000 to 5000				
C[C@@H]1CN(c2ccnn3cc(-c4cnn(C5CC6(C5)CN(C)C6)c4)cc23)C(=O)[C@]1(C#N)C1CC1 [Example 315, (3R,4S)-3-cyclopropyl-4-methyl-1-(6-(1-(2-methyl-2-azaspiro[3.3]heptan-6-yl)-1H-pyrazol-4-yl)pyrrolo[1,2-b]pyridazin-4-yl)-2-oxopyrrolidine-3-carbonitrile]					50 to 100	1000 to 5000	1000 to 5000	< 5	100 to 1000	100 to 1000	< 100
Cc1c(-c2cc3c(N4C[C@@H](C)[C@@](C#N)(C5CC5)C4=O)ccnn3c2)cnn1C [Example 166, (3R,4S)-3-cyclopropyl-1-(6-(1,5-dimethyl-1H-pyrazol-4-yl)pyrrolo[1,2-b]pyridazin-4-yl)-4-methyl-2-oxopyrrolidine-3-carbonitrile]	5 to 20	100 to 1000	100 to 1000	100 to 1000	> 100	> 10000	> 10000				
